One experiment deals with C. parapsilosis. As to the kind of experiment: Antifungal Activity Assay (broth microtiter MIC), C. parapsilosis. The experiment is classed as cell-based, Candida parapsilosis. To be noted: Lodderomyces parapsilosis, ATCC22019, 48 h. In a few lines:
(§1)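 Colonies from 24 h Sabouraud dextrose agar plates (35° C) are suspended in RPMI 1640+MOPS and diluted to give 2.5×10^3 CFU/mL in the wells. Plates are set up per CLSI M27-A3. Visual MIC is recorded at 48 h.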

A further experiment addresses human (hACC2) (Homo sapiens, UniProt O00763). As to the kind of experiment: In vitro ACC inhibition assay (ADP-Glo), hACC2. The experiment is classed as biochemical. The conditions noted are these: 5 nM ACC2, 20 μM ATP, 20 μM acetyl-CoA. Here is the method: The detailed procedure is as follows. […] 10 μL ADP glo reagent was added. […] 20 μL kinase detection reagent was added.
On the technique in general: ADP-Glo first removes unused ATP, then detects ADP through luciferase.

Another experiment concerns C. krusei. As to the kind of experiment: Antifungal Activity Assay (broth microtiter MIC), C. krusei. To be noted: Pichia kudriavzevii, ATCC6258, 48 h. Format: cell-based, Candida krusei. In a few lines: as §1
For the next experiment, the system named is C. albicans. As to the kind of experiment: Antifungal Activity Assay (broth microtiter MIC), C. albicans. The experiment is classed as cell-based, Candida albicans. To be noted: Candida albicans, ATCC90028, 48 h. The gist of the method: as §1
The target in the next experiment is fungal (fACC2) (UniProt Q00955). To be noted: read-out: fACC2 (in vitro ACC2 Inhibition Assay, IC50), ADP-Glo, 5 nM ACC2, 20 μM ATP, 20 μM acetyl-CoA.
fungal (fACC2), sequence (Q00955 whole entry): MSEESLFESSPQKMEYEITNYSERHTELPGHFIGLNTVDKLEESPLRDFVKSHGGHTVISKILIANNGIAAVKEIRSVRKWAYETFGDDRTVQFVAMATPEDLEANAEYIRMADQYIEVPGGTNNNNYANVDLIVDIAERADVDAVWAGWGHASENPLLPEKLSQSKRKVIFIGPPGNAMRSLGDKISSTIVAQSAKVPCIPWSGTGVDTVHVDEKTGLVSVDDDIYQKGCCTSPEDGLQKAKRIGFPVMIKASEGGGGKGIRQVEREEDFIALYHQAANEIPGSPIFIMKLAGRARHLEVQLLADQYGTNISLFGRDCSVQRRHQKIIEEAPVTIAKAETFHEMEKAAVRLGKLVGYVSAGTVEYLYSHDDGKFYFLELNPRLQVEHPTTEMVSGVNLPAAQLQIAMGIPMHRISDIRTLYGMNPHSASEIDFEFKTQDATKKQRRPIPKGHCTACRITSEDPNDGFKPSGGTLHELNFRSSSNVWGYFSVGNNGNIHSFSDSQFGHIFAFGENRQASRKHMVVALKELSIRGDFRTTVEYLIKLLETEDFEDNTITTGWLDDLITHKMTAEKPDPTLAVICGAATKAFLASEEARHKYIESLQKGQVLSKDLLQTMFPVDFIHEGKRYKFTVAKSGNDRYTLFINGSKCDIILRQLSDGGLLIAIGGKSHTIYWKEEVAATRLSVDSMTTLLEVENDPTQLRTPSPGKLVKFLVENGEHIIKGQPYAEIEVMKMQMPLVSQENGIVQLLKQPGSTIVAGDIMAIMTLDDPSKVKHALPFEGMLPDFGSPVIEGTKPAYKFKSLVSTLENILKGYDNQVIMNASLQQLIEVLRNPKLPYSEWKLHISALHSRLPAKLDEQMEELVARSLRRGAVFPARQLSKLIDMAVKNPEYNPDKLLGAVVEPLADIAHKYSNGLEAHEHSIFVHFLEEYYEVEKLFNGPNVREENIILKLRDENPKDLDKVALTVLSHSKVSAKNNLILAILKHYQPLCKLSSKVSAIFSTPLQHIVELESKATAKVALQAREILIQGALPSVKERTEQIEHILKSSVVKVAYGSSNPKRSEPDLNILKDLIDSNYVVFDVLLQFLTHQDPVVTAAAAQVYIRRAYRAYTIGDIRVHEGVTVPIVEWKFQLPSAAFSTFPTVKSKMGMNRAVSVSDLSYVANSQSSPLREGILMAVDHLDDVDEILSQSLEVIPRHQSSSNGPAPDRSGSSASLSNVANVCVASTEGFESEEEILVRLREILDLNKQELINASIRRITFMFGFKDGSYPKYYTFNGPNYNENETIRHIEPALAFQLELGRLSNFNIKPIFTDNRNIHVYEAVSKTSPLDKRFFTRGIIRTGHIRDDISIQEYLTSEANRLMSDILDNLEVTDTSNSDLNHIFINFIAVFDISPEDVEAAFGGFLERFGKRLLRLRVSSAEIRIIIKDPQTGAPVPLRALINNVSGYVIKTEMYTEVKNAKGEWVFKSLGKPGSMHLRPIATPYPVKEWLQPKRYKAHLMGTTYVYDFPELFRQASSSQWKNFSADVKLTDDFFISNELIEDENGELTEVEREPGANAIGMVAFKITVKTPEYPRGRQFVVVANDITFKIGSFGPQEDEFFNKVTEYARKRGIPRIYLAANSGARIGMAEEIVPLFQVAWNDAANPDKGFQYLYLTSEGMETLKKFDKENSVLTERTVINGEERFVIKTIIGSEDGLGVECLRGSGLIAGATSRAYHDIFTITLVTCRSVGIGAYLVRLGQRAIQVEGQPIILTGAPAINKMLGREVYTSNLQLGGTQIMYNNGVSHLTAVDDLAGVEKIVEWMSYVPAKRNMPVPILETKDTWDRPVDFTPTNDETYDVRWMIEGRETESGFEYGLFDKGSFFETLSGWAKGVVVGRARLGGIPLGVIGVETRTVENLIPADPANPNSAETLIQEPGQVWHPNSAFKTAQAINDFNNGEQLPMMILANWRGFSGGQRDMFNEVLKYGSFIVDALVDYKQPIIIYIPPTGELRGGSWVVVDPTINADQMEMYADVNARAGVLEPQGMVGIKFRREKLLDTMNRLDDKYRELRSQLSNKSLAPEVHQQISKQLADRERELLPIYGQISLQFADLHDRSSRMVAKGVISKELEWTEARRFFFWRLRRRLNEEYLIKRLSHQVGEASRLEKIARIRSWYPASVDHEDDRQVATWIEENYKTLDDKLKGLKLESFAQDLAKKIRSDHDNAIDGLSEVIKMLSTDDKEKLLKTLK
The mark [1] stands for this setting: read-out: MIC, C. parapsilosis ATCC 22019, Table 3b (additional results), 3 replicates, MIC recorded at 48 h.
Setting [2] is: read-out: MIC, C. krusei ATCC 6258, Table 3b (additional results), 3 replicates, MIC recorded at 48 h.
Setting [3] is: read-out: MIC, C. albicans ATCC 90028, Table 3b (additional results), 3 replicates, MIC recorded at 48 h.
Setting [4] is: Table 3b (additional results), ATCC 22019, 3 replicates, MIC recorded at 48 h, read-out: MIC, C. parapsilosis ATCC 22019.
[5] abbreviates: Table 3b (additional results), ATCC 6258, 3 replicates, MIC recorded at 48 h, read-out: MIC, C. krusei ATCC 6258.
Setting [6] is: Table 3b (additional results), ATCC 90028, 3 replicates, MIC recorded at 48 h, read-out: MIC, C. albicans ATCC 90028.
[7] abbreviates: read-out: MIC, C. parapsilosis ATCC 22019, Table 3a, 3 replicates, MIC recorded at 48 h.
Where [8] appears, read: read-out: MIC, C. krusei ATCC 6258, Table 3a, 3 replicates, MIC recorded at 48 h.
The mark [9] stands for this setting: read-out: MIC, C. albicans ATCC 90028, Table 3a, 3 replicates, MIC recorded at 48 h.
The mark [10] stands for this setting: Table 3a, ATCC 22019, 3 replicates, MIC recorded at 48 h, read-out: MIC, C. parapsilosis ATCC 22019.
[11] abbreviates: Table 3a, ATCC 6258, 3 replicates, MIC recorded at 48 h, read-out: MIC, C. krusei ATCC 6258.
Where [12] appears, read: Table 3a, ATCC 90028, 3 replicates, MIC recorded at 48 h, read-out: MIC, C. albicans ATCC 90028.

pIC50: −log10 of the molar value. Values after ≈ are worked out from the molar mass of the structure shown. Like-named read-outs stand apart in the source and are kept apart here.

Broadly, the MIC is the lowest concentration found to suppress growth. In general, pIC50 refers to the negative decadic logarithm of the IC50, by convention in mol/L.

human (hACC2), sequence (O00763 whole entry): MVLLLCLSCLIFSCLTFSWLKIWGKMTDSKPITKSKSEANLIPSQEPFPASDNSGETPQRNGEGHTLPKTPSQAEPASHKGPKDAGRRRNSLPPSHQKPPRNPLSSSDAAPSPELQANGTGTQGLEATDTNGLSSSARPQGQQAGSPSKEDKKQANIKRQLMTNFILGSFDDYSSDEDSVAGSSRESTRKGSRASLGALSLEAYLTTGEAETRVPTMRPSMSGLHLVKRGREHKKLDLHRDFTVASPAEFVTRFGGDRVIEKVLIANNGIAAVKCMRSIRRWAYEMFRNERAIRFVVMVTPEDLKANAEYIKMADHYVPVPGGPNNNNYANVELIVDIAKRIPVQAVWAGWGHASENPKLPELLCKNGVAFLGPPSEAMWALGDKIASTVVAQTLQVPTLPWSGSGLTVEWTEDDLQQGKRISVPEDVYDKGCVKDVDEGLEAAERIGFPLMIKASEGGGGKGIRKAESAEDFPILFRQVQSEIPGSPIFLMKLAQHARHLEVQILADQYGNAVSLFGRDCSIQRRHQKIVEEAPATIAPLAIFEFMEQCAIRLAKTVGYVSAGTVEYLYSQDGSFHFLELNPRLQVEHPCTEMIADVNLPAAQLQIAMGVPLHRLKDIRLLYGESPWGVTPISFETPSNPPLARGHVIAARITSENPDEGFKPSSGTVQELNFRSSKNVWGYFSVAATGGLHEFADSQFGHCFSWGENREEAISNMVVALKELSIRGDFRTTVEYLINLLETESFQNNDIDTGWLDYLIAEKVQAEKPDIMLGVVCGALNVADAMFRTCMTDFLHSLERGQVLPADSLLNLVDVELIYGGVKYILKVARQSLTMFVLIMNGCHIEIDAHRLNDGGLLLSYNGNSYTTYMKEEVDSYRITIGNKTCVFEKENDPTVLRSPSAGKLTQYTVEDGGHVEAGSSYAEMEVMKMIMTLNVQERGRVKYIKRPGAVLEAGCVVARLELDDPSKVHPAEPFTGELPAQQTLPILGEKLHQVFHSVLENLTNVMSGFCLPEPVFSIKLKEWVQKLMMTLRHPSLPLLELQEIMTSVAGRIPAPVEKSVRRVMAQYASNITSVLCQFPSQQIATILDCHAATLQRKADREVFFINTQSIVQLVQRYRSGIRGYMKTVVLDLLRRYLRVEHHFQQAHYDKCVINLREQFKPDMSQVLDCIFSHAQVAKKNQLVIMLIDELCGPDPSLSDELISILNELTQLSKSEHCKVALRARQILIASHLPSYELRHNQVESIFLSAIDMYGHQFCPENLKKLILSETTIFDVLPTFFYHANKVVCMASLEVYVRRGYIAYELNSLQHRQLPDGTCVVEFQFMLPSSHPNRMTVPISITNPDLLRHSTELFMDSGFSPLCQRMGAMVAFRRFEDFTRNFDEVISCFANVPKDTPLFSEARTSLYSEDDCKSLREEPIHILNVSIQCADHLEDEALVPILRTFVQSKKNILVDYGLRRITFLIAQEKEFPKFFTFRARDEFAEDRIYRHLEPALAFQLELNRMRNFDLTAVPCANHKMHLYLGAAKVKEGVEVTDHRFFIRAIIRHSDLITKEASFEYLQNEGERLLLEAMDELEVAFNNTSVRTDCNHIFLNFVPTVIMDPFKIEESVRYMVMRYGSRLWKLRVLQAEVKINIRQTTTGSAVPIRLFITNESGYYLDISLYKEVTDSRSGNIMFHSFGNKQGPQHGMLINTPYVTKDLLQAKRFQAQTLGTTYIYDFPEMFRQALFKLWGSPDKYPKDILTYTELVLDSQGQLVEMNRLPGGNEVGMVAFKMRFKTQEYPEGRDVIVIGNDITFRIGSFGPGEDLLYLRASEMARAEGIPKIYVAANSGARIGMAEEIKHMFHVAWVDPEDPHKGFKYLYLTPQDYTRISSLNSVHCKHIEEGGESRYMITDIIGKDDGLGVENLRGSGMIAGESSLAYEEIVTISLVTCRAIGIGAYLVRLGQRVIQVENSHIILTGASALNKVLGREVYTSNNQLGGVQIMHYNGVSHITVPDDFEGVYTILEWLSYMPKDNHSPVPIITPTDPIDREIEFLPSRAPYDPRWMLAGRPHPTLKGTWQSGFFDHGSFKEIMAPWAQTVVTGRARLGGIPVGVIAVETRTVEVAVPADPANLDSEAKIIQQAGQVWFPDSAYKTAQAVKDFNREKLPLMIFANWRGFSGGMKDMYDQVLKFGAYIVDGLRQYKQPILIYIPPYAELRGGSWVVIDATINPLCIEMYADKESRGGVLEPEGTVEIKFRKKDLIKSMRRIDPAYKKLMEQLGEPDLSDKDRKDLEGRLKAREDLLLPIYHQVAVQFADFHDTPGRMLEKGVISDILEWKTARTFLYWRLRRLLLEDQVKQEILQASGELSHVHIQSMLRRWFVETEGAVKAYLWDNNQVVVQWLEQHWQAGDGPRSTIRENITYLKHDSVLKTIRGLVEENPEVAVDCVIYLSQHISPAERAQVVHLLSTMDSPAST

Turning to `COc1ccc(F)cc1[C@H](Cn1c(=O)n(C(C)(C)C(=O)O)c(=O)c2c(C)c(-n3nccn3)sc21)O[C@H]1CC[C@@H](C#N)CC1` [Compound I-156], the MIC in the experiment with C. parapsilosis (setting [1]) lay in the range of 2.01 to 4 µg/mL (≈ 3.29 to 6.55 µM); in the experiment with C. krusei (setting [2]), 1.01 to 2 µg/mL (≈ 1.65 to 3.28 µM); in the experiment with C. albicans (setting [3]), 1.01 to 2 µg/mL (≈ 1.65 to 3.28 µM). For the same molecule, the negative logarithm of the IC50 (pIC50) was 7.40 to 8.00 against human (hACC2) (Table 2a); 7.40 to 8.00 on human (hACC2) (Table 2b, additional results); 9.00 to 9.40 on fungal (fACC2) (Table 2a); 9.00 to 9.52 on fungal (fACC2) (Table 2b, additional results).
For `COc1ccc(F)cc1[C@H](Cn1c(=O)n(C(C)(C)C(=O)O)c(=O)c2c(C)c(-n3nccn3)sc21)O[C@H]1CC[C@H](C#N)CC1` [Compound I-157], the minimum inhibitory concentration (MIC) was in the range of 2.01 to 4 µg/mL (≈ 3.29 to 6.55 µM) in the experiment with C. parapsilosis (setting [4]), 1.01 to 2 µg/mL (≈ 1.65 to 3.28 µM) in the experiment on C. krusei (setting [5]) and 1.01 to 2 µg/mL (≈ 1.65 to 3.28 µM) in the experiment on C. albicans (setting [6]). In addition, the pIC50 against human (hACC2) (Table 2a) was 8.00 to 8.30; against human (hACC2) (Table 2b, additional results), 8.00 to 8.30; at fungal (fACC2) (Table 2a), 8.30 to 9.00; at fungal (fACC2) (Table 2b, additional results), 8.30 to 9.00.
In the case of `COc1ccc(F)cc1[C@H](Cn1c(=O)n(C(C)(C)C(=O)NC(C)C)c(=O)c2c(C)c(-n3nccn3)sc21)O[C@H]1CC[C@@H](C#N)CC1` [Compound I-158], the MIC with C. parapsilosis (setting [7]) fell in the range of 1.1 to 2 µg/mL (≈ 1.69 to 3.07 µM); with C. parapsilosis (setting [1]), 0.25 to 1 µg/mL (≈ 0.384 to 1.53 µM); with C. krusei (setting [8]), 0.25 to 1 µg/mL (≈ 0.384 to 1.53 µM); with C. krusei (setting [2]) it was 0.06 to 0.249 µg/mL (≈ 0.0921 to 0.382 µM); with C. albicans (setting [9]), 0.25 to 1 µg/mL (≈ 0.384 to 1.53 µM); with C. albicans (setting [3]), 0.25 to 1 µg/mL (≈ 0.384 to 1.53 µM). For the same molecule, the pIC50 against human (hACC2) (Table 2a) was 7.40 to 8.00; on human (hACC2) (Table 2b, additional results) it was 7.40 to 8.00; at fungal (fACC2) (Table 2a), 8.30 to 9.00; at fungal (fACC2) (Table 2b, additional results) it was 8.30 to 9.00.
On to `COc1ccc(F)cc1[C@H](Cn1c(=O)n(C(C)(C)C(=O)NC(C)C)c(=O)c2c(C)c(-n3nccn3)sc21)O[C@H]1CC[C@H](C#N)CC1` [Compound I-159], for which the minimum inhibitory concentration (MIC) fell in the range of 0.25 to 1 µg/mL (≈ 0.384 to 1.53 µM) in the experiment with C. parapsilosis (setting [7]); 0.25 to 1 µg/mL (≈ 0.384 to 1.53 µM) in the experiment on C. parapsilosis (setting [1]); 0.25 to 1 µg/mL (≈ 0.384 to 1.53 µM) in the experiment on C. krusei (setting [8]); 0.06 to 0.249 µg/mL (≈ 0.0921 to 0.382 µM) in the experiment on C. krusei (setting [2]); 0.25 to 1 µg/mL (≈ 0.384 to 1.53 µM) with C. albicans (setting [9]); 0.25 to 1 µg/mL (≈ 0.384 to 1.53 µM) with C. albicans (setting [3]). In addition, the pIC50 against human (hACC2) (Table 2a) was 8.30 to 9.00; at human (hACC2) (Table 2b, additional results), 8.30 to 9.00; at fungal (fACC2) (Table 2a), 8.30 to 9.00; at fungal (fACC2) (Table 2b, additional results) it was 8.30 to 9.00.
As for `COc1ccc(F)cc1[C@H](Cn1c(=O)n(C(C)(C)C(=O)NC(C)(C)C)c(=O)c2c(C)c(-n3nccn3)sc21)OCCCO` [Compound I-160], the MIC was 1.1 to 2 µg/mL (≈ 1.78 to 3.24 µM) in the experiment with C. parapsilosis (setting [10]); 2.01 to 4 µg/mL (≈ 3.26 to 6.49 µM) in the experiment with C. parapsilosis (setting [4]); 0.25 to 1 µg/mL (≈ 0.405 to 1.62 µM) in the experiment on C. krusei (setting [11]); 1.01 to 2 µg/mL (≈ 1.64 to 3.24 µM) in the experiment on C. krusei (setting [5]); 2.1 to 4 µg/mL (≈ 3.41 to 6.49 µM) with C. albicans (setting [12]); 2.01 to 4 µg/mL (≈ 3.26 to 6.49 µM) in the experiment with C. albicans (setting [6]). Further, the pIC50 at human (hACC2) (Table 2a) is 8.00 to 8.30; against human (hACC2) (Table 2b, additional results) it was 8.00 to 8.30; at fungal (fACC2) (Table 2a), 8.30 to 9.00; at fungal (fACC2) (Table 2b, additional results) it was 8.30 to 9.00.
For the molecule `COc1ccc(F)cc1[C@H](Cn1c(=O)n(C(C)(C)C(=O)NO)c(=O)c2c(C)c(-n3nccn3)sc21)OCCCO` [Compound I-161], the MIC fell in the range of 2.1 to 4 µg/mL (≈ 3.64 to 6.94 µM) in the experiment on C. parapsilosis (setting [10]); 2.01 to 4 µg/mL (≈ 3.49 to 6.94 µM) in the experiment with C. parapsilosis (setting [4]); 2.1 to 4 µg/mL (≈ 3.64 to 6.94 µM) in the experiment with C. krusei (setting [11]); 1.01 to 2 µg/mL (≈ 1.75 to 3.47 µM) in the experiment with C. krusei (setting [5]); 2.1 to 4 µg/mL (≈ 3.64 to 6.94 µM) with C. albicans (setting [12]); 2.01 to 4 µg/mL (≈ 3.49 to 6.94 µM) with C. albicans (setting [6]). Moreover, the pIC50 against human (hACC2) (Table 2a) was 8.30 to 9.00; on human (hACC2) (Table 2b, additional results), 8.30 to 9.00; on fungal (fACC2) (Table 2a), 9.00 to 9.40; at fungal (fACC2) (Table 2b, additional results), 9.00 to 9.52.
On to `COc1ccc(F)cc1[C@H](Cn1c(=O)n(C(C)(C)C(=O)N(O)C(C)C)c(=O)c2c(C)c(-n3nccn3)sc21)OCCCO` [Compound I-163], for which the minimum inhibitory concentration (MIC) in the experiment on C. parapsilosis (setting [10]) was 0.25 to 1 µg/mL (≈ 0.404 to 1.62 µM); with C. parapsilosis (setting [4]), 2.01 to 4 µg/mL (≈ 3.25 to 6.47 µM); in the experiment with C. krusei (setting [11]), 0.25 to 1 µg/mL (≈ 0.404 to 1.62 µM); with C. krusei (setting [5]), 0.25 to 1 µg/mL (≈ 0.404 to 1.62 µM); in the experiment with C. albicans (setting [12]), 0.25 to 1 µg/mL (≈ 0.404 to 1.62 µM); with C. albicans (setting [6]) it was 1.01 to 2 µg/mL (≈ 1.63 to 3.23 µM). For the same molecule, the pIC50 against human (hACC2) (Table 2a) is 8.00 to 8.30; at human (hACC2) (Table 2b, additional results) it was 8.00 to 8.30; on fungal (fACC2) (Table 2a), 8.30 to 9.00; at fungal (fACC2) (Table 2b, additional results) it was 8.30 to 9.00.

These data come from patent US10800791B2, “Triazole ACC inhibitors and uses thereof” (Gilead Apollo, LLC, priority 2015, dated 2020).
